Laboratory results from US11377444B2, “Pyridopyrimidine compounds acting as mTORC 1/2 dual inhibitors” (MEDSHINE DISCOVERY INC., priority 2017, dated 2022).
pIC50, pKd: −log10 of the molar value.

Tests used:
HT-29 cell = assay: Cell proliferation inhibitory activity (Cell-Titer-Glo), HT-29; assay type: cell-based; settings: 3 days incubation
Description: (§1) Experimental Embodiment 2: Evaluation of Cell Proliferation Inhibitory Activity
(§2) Experiment objective: To detect cell proliferation inhibitory activity of the tested compounds.
(§3) Experimental principle: The luciferase in the Cell-Titer-Glo reagent produces oxyluciferin using luciferin, oxygen and ATP as reaction substrates, and releases energy in the form of light. Since the reaction of luciferase requires ATP, the total amount of light generated by the reaction is proportional to the total amount of ATP that reflects cell viability.
(§4) Cell lines: MCF-7 cell line […], HT-29 cell line (ATCC-HTB-38), OE21 (ECACC-96062201), NCI-N87 cell line (ATCC-CRL-5822)
(§5) Cell culture medium: (RPMI 1640 culture medium (Invitrogen #1868546; 10% serum Invitrogen #1804958; L-glutamine 1×, Invitrogen #1830863; dual antibiotic Hyclone #J170012))
(§6) Cell Titer-Glo® Luminescent Cell Viability Assay Kit (Promega #G7573)
(§7) The cells were inoculated in a 384- or 96-well plate with a density of 1000 cells per well and 25 μL per well according to the instructions of the cell inoculating plate. The edge wells were not inoculated with cells, and was supplemented with […].
(§8) (i) The mother solution of the compound was 10 mM, and diluted with DMSO to an initial concentration of 4 mM. The compound was added to the compound mother solution, 9 μL per well.
(§9) (ii) The compound was diluted with ECHO liquid-handling workstation. Each well of the cell plate was added with 125 nL compound. Each well of the cell wells in 2nd column and 23rd column was added with 125 nL DMSO, and each of the PBS wells in 1st column and 24th column was added with 125 nL DMSO.
(§10) (iii) Each well of the cell plate was supplemented with 25 μL culture medium, the final volume in each well of the cell plate was 50 μL, […] 3 times dilution, 10 concentrations, each concentration was duplicated in left and right wells, the final DMSO concentration was 0.25%.
(§11) 2.3. After addition of the compound, centrifugation was performed at 1000 rpm for 1 min, and the cell plate was placed in a 37° C., 5% CO2 incubator for 3 days.
(§12) The cell plate was taken out from the incubator and equilibrated at room temperature for 30 minutes. 25 μL Cell-Titer-Glo reagent was added to each well, shaken for one minute to mix thoroughly, centrifuged at 1000 rpm for 1 minute. After 10 minutes, the plate was read on PerkinElmer Envision with a […] reading time was set at 0.2 second.

[1] = target: T1, mTOR kinase (mTORC1 and mTORC2 kinase complex) (Homo sapiens, UniProt P42345); assay: In vitro evaluation of mTOR kinase inhibitory activity (DiscoverX ligand-bead competition binding, qPCR readout)
T1 construct: purchased DiscoverX; host or cells: HEK-293
Procedure: Experimental Embodiment 1: In Vitro Evaluation of mTOR Kinase Inhibitory Activity This experiment was performed by DiscoverX. All materials and methods were obtained from DiscoverX.
Kinase activity analysis.
1. Labeled mTOR kinase was stably expressed in HEK-293 cells.
2. Streptavidin magnetic beads were treated with biotinylated small molecule ligands at room temperature for 30 minutes to produce affinity resin for kinase analysis;
3. Ligand beads were blocked with excess biotin and washed with buffer (1% bovine serum albumin, […]) to remove unbound ligand and non-specifically bound ligand;
4. The assembly of kinase and ligand and affinity beads, and the binding reaction between the compound and the three were performed in buffer (20% blocking buffer, 0.17x phosphate buffer, 0.05% Tween […]);
5. The test compounds were dissolved in dimethyl sulfoxide;
6. All test compounds were dissolved in DMSO, and then directly diluted […]
7. The solution was placed in a 384-well polypropylene plate, wherein the volume of each well was 0.02 mL;
8. The plate was shaked for an hour at room temperature;
9. The plate was washed with buffer (1× PBS, 0.05% Tween 20);
10. The affinity beads were resuspended in buffer (1× PBS, 0.05% Tween […] non-biotin affinity ligand) and incubated at room temperature for 30 minutes;
11. The kinase concentration in the eluate was deteced by qPCR.

MCF-7 cell = assay: Cell proliferation inhibitory activity (Cell-Titer-Glo), MCF-7; assay type: cell-based; settings: Homo sapiens, MCF7, 72 h; 3 days incubation
Description: as §1, §2, §3, §4, §5, §6, §7, §8, §9, §10, §11, §12

[2] = system: human breast cancer MCF-7 cell subcutaneous xenograft tumor; assay: In vivo pharmacodynamic study, MCF-7 subcutaneous xenograft tumor; parameters: species or system BALB/c nude mouse; settings: 15 mg/kg
Description: Experimental Embodiment 4: In Vivo Pharmacodynamic Study on BALB/c Nude Mouse Model of Human Breast Cancer MCF-7 Cell Subcutaneous Xenograft Tumor
Experimental objective: To study the efficacy of the test compounds on human breast cancer MCF-7 cell subcutaneous xenograft tumor in BALB/c nude mouse model.
Experimental animals: Female BALB/c nude mice, 6-8 weeks old, weighing 18-22 grams; supplier: Shanghai Xipuer-Bikai Experimental Animal Co., Ltd.
Human breast cancer MCF-7 cells (ECACC, article number: 86012803) were subjected to in vitro monolayer culture under the conditions of EMEM (EBSS)+2 mM […]+1% Non Essential Amino Acids (NEAA) medium containing 10% fetal bovine serum, 100 U/mL penicillin and 100 μg/mL streptomycin, and 37° C., 5% CO2incubator. Conventional digestion treatment was carried out with trypsin-EDTA twice a week for cell passage. When the cell saturation was 80%-90%, and the quantity reached the requirement, the cells were collected, counted and inoculated.
Estrogen tablets (0.18 mg) were inoculated into the left back of each mouse three days before cell inoculation, 0.2 mL (1×10^7) MCF-7 cells (added with matrigel, volume ratio of 1:1) were subcutaneously inoculated into the right back of each mouse. When the average volume of tumor reached 142 mm^3, the mice were divided into groups and began to be administrated.
The test compounds were prepared into clear solutions of 0.75 mg/mL, 1.5 mg/mL and 3 mg/mL. The vehicles were 5% DMSO+30% polyethylene glycol 300+65% water.
The experimental indexes were used for investigating whether the growth of the tumors had been inhibited, delayed or cured. The diameters of the tumors were measured with vernier calipers twice a week. The calculation formula of the tumor volume was: V=0.5a×b^2, wherein a and b represent the long and short diameters of the tumor respectively.
The antitumor efficacy of the compound was evaluated by TGI (%) or relative tumor proliferation rate T/C (%). TGI (%) reflects the inhibition rate of the tumor growth. Calculation of TGI (%): TGI (%)=[1−(average tumor volume at the end of administration in the treatment group−average tumor volume at the beginning of administration in the treatment group)/(average tumor volume at the end of treatment in the vehicle control group−average tumor volume at the beginning of treatment in the vehicle control group)]×[…].
Relative tumor proliferation rate T/C (%): The calculation formula was as follows: T/C %=TRTV/CRTV at the beginning of the treatment (TRTV: treatment group RTV; CRTV: negative control group RTV). The relative tumor volume (RTV) was calculated according to the results of tumor measurement. The calculation formula was RTV=Vt/V0, wherein V0 is the average tumor volume measured during administration of the groups (i.e. d0), and Vt is the average tumor volume during a certain measurement, the TRTV and CRTV were taken on the same day.
Statistical analysis included the mean and standard error (SEM) of tumor volume at each time point in each group. […] The comparison between two groups was analyzed by T-test, and the comparison between three or more groups was analyzed by one-way ANOVA.

pKd [1]	pIC50 (MCF-7 cell)	SMILES	other results
9.10		CNC(=O)c1cccc(-c2ccc3c(N4CCOCC4C)nc(N4CCOC5(CCOC5)C4)nc3n2)c1 (single isomer, unassigned) [Embodiment 32-1]	pIC50 (HT-29 cell; Homo sapiens, HT-29, 72 h): 6.13
8.82		CNC(=O)c1cccc(-c2ccc3c(N4CCOCC4C)nc(N4CCOC5(CCOC5)C4)nc3n2)c1 (single isomer, unassigned) [Embodiment 32-2]	pIC50 (HT-29 cell): 5.85
9.11		CNC(=O)c1cccc(-c2ccc3c(N4CCOCC4C)nc(N4CCOC5(CC(O)C5)C4)nc3n2)c1 (single isomer, unassigned) [Embodiment 33-1]	pIC50 (HT-29 cell; Homo sapiens, HT-29, 72 h): 5.70
9.42		CNC(=O)c1cccc(-c2ccc3c(N4CCOCC4C)nc(N4CCOC5(CC(O)C5)C4)nc3n2)c1 (single isomer, unassigned) [Embodiment 33-2]	pIC50 (HT-29 cell): 5.90
9.15	6.75	CNC(=O)c1cccc(-c2ccc3c(N4CCOCC4C)nc(N4CC5(CCOC5)OCC4C)nc3n2)c1 (single isomer, unassigned) [Embodiment 48-2]	
9.15	6.20	CC1COCCN1c1nc(N2CCOC3(CCOC3)C2)nc2nc(-c3cccc(C(N)=O)c3)ccc12 (single isomer, unassigned) [Embodiment 50-2]	
9.12	6.60	CNC(=O)c1cccc(-c2ccc3c(N4CCOCC4C)nc(N4CCC5(CC4)OCCO5)nc3n2)c1 (stereo not drawn) [Embodiment 12]	
9.19	6.59	CNC(=O)c1cccc(-c2ccc3c(N4CCOC[C@@H]4C)nc(N4CCOC5(CCOCC5)C4)nc3n2)c1 [Embodiment 13]	
8.52		C[C@H]1COCCN1c1nc(N2CCOC3(CC3)C2)nc2nc(-c3cccc(-c4nc[nH]n4)c3)ccc12 [Embodiment 19]	
9.01		CNC(=O)c1cccc(-c2ccc3c(N4CCOC[C@@H]4C)nc(N4CCOCC45CC5)nc3n2)c1 [Embodiment 20]	
9.33	6.72	C[C@H]1COCCN1c1nc(N2CCOC3(CC3)C2)nc2nc(-c3cccc(C(=O)NC4CC4)c3)ccc12 [Embodiment 21]	
8.82		C[C@H]1COCCN1c1nc(N2CCOC3(CC3)C2)nc2nc(-c3cccc(C(=O)NC(C)(C)C)c3)ccc12 [Embodiment 22]	
9.39	6.69	CNC(=O)c1cccc(-c2ccc3c(N4CCOC[C@@H]4C)nc(N4CCOC5(CCCC5)C4)nc3n2)c1 [Embodiment 24]	
8.85		C[C@H]1COCCN1c1nc(N2CCOC3(CC3)C2)nc2nc(-c3ccc4cnc(N)nc4c3)ccc12 [Embodiment 25]	
9.00	6.37	CNC(=O)c1cccc(-c2ccc3c(N4CC5CCC(C4)O5)nc(N4CCOC5(CC5)C4)nc3n2)c1 [Embodiment 26]	
8.18		CNC(=O)c1cccc(-c2ccc3c(N4CCOC[C@@H]4C)nc(N4CCOC5(CN(C)C5)C4)nc3n2)c1 [Embodiment 27]	
8.85		CNC(=O)c1cccc(-c2ccc3c(N4CCOC[C@@H]4C)nc(N4CCOC5(C4)CC(F)(F)C5)nc3n2)c1 [Embodiment 28]	
8.57		C[C@H]1COCCN1c1nc(N2CCOC3(C2)CC(F)(F)C3)nc2nc(-c3cccc(C(=O)NC4CC4)c3)ccc12 [Embodiment 29]	
8.30		CNC(=O)c1cccc(-c2ccc3c(N4CCOC[C@@H]4C)nc(N4CCCC5(C4)OCCO5)nc3n2)c1 [Embodiment 31]	
	6.44	C[C@H]1COCCN1c1nc(N2CCOCC3(CCC3)C2)nc2nc(-c3cccc(C(N)=O)c3)ccc12 [Embodiment 36]	
	6.60	CNC(=O)c1cccc(-c2ccc3c(N4CCOC[C@@H]4C)nc(N4CCOCC5(CCC5)C4)nc3n2)c1 [Embodiment 37]	
	6.35	C[C@H]1COCCN1c1nc(N2CCOCC3(CC3)C2)nc2nc(-c3cccc(C(N)=O)c3)ccc12 [Embodiment 38]	
	6.57	CNC(=O)c1cccc(-c2ccc3c(N4CCOC[C@@H]4C)nc(N4CCOCC5(CC5)C4)nc3n2)c1 [Embodiment 39]	
9.11		CNC(=O)c1cccc(-c2ccc3c(N4CCOC[C@@H]4C)nc(N4CCOC5(COC5)C4)nc3n2)c1 [Embodiment 40]	
9.03		CNC(=O)c1cccc(-c2ccc3c(N4CCOC[C@@H]4C)nc(N4CCOC5(CSC5)C4)nc3n2)c1 [Embodiment 41]	
9.03		CNC(=O)c1cccc(-c2ccc3c(N4CCOC[C@@H]4C)nc(N4CCOC5(C4)C[S+]([O-])C5)nc3n2)c1 (stereo partly drawn) [Embodiment 42]	
7.92		CNC(=O)c1cccc(-c2ccc3c(N4CCOC[C@@H]4C)nc(N4CCOC5(C4)CS(=O)(=O)C5)nc3n2)c1 [Embodiment 43]	
9.52		CC1COCCN1c1nc(N2CCOC3(CCCC3)C2)nc2nc(-c3cccc(C(N)=O)c3)ccc12 (stereo not drawn) [Embodiment 49]	T/C [2]: 121.62%; TGI [2]: −37.89%; RTV (27th day) ([2]; 27th day): 5.07 ± 0.92; Tumor volume (27th day) ([2]; 27th day, mean ± SEM): 759 ± 174 mm^3; Tumor volume (day 0) ([2]; day 0, mean ± SEM): 144 ± 14 mm^3
9.10	6.23	C[C@H]1COCCN1c1nc(N2CCOC3(COC3)C2)nc2nc(-c3cccc(C(N)=O)c3)ccc12 [Embodiment 52]	

SMILES	pKd [1]	pIC50 (MCF-7 cell)	other results
CNC(=O)c1cccc(-c2ccc3c(N4C5CCC4COC5)nc(N4CCOC5(CC5)C4)nc3n2)c1 [Embodiment 9]	9.47	6.58	
